Source: ChEMBL document CHEMBL4342426, “Structure-activity relationship of 4-azaindole-2-piperidine derivatives as agents against Trypanosoma cruzi” (Bioorg Med Chem Lett, 2020)

Tests used:
cells = conditions: Homo sapiens, MRC-5 SV2, 72 h
Description: (§1) Cytotoxicity against human MRC5 SV2 cells assessed as reduction in cell viability incubated for 3 days by fluorimetry

Macrophage = test: cells; conditions: Mus musculus, 72 h
Description: (§2) Cytotoxicity against mouse peritoneal Macrophage cells assessed as reduction in cell viability incubated for 3 days by fluorimetry

in vitro [1] = conditions: human, MRC5 SV2 cells
Description: as §1

in vitro [2] = conditions: human, liver microsomes
Description: Metabolic stability in human liver microsomes assessed as intrinsic clearance at 0.5 uM incubated for 30 mins by LC-MS/MS analysis

in vitro [3] = conditions: mouse, liver microsomes
Description: Metabolic stability in mouse liver microsomes assessed as intrinsic clearance at 0.5 uM incubated for 30 mins by LC-MS/MS analysis

physchem = conditions: buffer, pH 7.4
Description: Lipophilicity, logD of compound at pH 7.4 by HPLC analysis

in vitro [4] = conditions: mouse, peritoneal macrophages
Description: as §2

in vitro [5] = conditions: PAMPA
Description: Effective permeability of compound by PAMPA assay

in vitro [6] = conditions: mouse, liver microsomes; remark: listed apart in the source
Description: Metabolic stability in mouse liver microsomes assessed as fraction unbound at 0.5 uM incubated for 30 mins by LC-MS/MS analysis

Trypanosoma cruzi = test: microbe, parasite or virus in culture; conditions: Tulahuen CL2, MRC-5 SV2, 168 h
Description: Antitrypanosomal activity against Trypanosoma cruzi Tulahuen CL2 amastigotes infected in human MRC5 SV2 cells incubated for 7 days by chlorophenol red beta-D-galactopyranoside substrate based spectrophotometric assay

Trypanosoma brucei = test: microbe, parasite or virus in culture; conditions: Squib 427, 72 h
Description: Antitrypanosomal activity against Trypanosoma brucei Squib 427 assessed as reduction in parasite growth incubated for 72 hrs by resazurin dye based fluorimetric analysis

[7] = system: Trypanosoma brucei rhodesiense; test: microbe, parasite or virus in culture; conditions: STIB900, 72 h
Description: Antiprotozoal activity against Trypanosoma brucei rhodesiense STIB900 trypomastigotes incubated for 72 hrs by resazurin dye based fluorimetric analysis

Leishmania infantum = test: microbe, parasite or virus in culture; conditions: for IC50: MHOM/MA(BE)/67/ITMAP263, 120 h; for IC90: MHOM/MA(BE)/67/ITMAP263, in Mus musculus, 120 h
Description: Antileishmanial activity against amastigote stage of Leishmania infantum MHOM/MA(BE)/67/ITMAP263 infected in mouse peritoneal macrophage assessed as parasite growth inhibition incubated for 5 days by Giemsa staining based assay

in vitro [8] = conditions: human, MRC5 SV2 cells; remark: listed apart in the source
Description: Selectivity index, ratio of IC50 for human MRC5 SV2 cells to IC50 for Trypanosoma cruzi Tulahuen CL2 amastigotes infected in human MRC5 SV2 cells

Compound	IC90 at 72 h (in vitro [1])	CLint scaled at 0.5 h, 0.5 µM (in vitro [2])	microsomal CLint at 0.5 h, 0.5 µM (in vitro [2])	CLint scaled at 0.5 h, 0.5 µM (in vitro [3])	microsomal CLint at 0.5 h, 0.5 µM (in vitro [3])	logD (physchem)	IC90 at 72 h (in vitro [4])	Papp (in vitro [5])	fraction unbound at 0.5 h, 0.5 µM (in vitro [6])	IC50 (Trypanosoma brucei)	IC90 (Trypanosoma brucei)	IC50 [7]	IC90 [7]	IC50 (Leishmania infantum)	IC90 (Leishmania infantum)	IC50 (cells)	IC50 (Macrophage)	IC50 (Trypanosoma cruzi)	IC90 (Trypanosoma cruzi)	selectivity ratio (in vitro [8])
O=C(c1ccccc1)N1CCCC(c2cn3ncccc3n2)C1 (centres undefined)	64 µM	167 mL/min/kg	135 µL/min/mg	10500 mL/min/kg	2900 µL/min/mg	2.39	64 µM	13.9 ×10⁻⁶ cm/s	0.877	64 µM	64 µM	64 µM	64 µM	64 µM	64 µM	64 µM	64 µM	64 µM	64 µM	–
O=C(c1ccc(C(F)(F)F)nc1)N1CCCC(c2cc3ncccc3[nH]2)C1 (centres undefined)	64 µM	50.3 mL/min/kg	27.9 µL/min/mg	132 mL/min/kg	24.9 µL/min/mg	2.68	64 µM	0.887 ×10⁻⁶ cm/s	0.6	64 µM	64 µM	64 µM	64 µM	64 µM	64 µM	64 µM	64 µM	64 µM	64 µM	–
O=C(Cc1ccccc1)N1CCN(c2nc3ccccc3s2)CC1	64 µM	210 mL/min/kg	126 µL/min/mg	–	–	3.65	64 µM	15.3 ×10⁻⁶ cm/s	0.647	64 µM	64 µM	56 µM	64 µM	64 µM	64 µM	64 µM	64 µM	40 µM	62.9 µM	1.59
Cc1nc(C)c(C(=O)N2CCCC(c3cc4ncccc4[nH]3)C2)s1 (centres undefined)	64 µM	29.5 mL/min/kg	26.2 µL/min/mg	774 mL/min/kg	233 µL/min/mg	2.3	64 µM	2.88 ×10⁻⁶ cm/s	0.96	64 µM	64 µM	64 µM	64 µM	64 µM	64 µM	64 µM	64 µM	64 µM	64 µM	–
O=C1c2ccccc2CN1CCc1cc2ncccc2[nH]1	64 µM	119 mL/min/kg	69.1 µL/min/mg	1090 mL/min/kg	213 µL/min/mg	2.19	64 µM	0.504 ×10⁻⁶ cm/s	0.626	64 µM	64 µM	64 µM	64 µM	64 µM	64 µM	64 µM	64 µM	64 µM	64 µM	–
Nc1cc(C2CCCN(C(=O)c3cc(C(F)(F)F)no3)C2)[nH]n1 (centres undefined)	64 µM	< 26.7 mL/min/kg	< 23 µL/min/mg	175 mL/min/kg	54.3 µL/min/mg	1.77	64 µM	3.76 ×10⁻⁶ cm/s	0.991	64 µM	64 µM	64 µM	64 µM	64 µM	64 µM	64 µM	64 µM	64 µM	64 µM	–
O=C(c1ccccc1)N1CCCC(c2nc3ncccc3[nH]2)C1 (centres undefined)	64 µM	< 35 mL/min/kg	< 23 µL/min/mg	763 mL/min/kg	173 µL/min/mg	1.97	64 µM	2.43 ×10⁻⁶ cm/s	0.723	64 µM	64 µM	64 µM	64 µM	64 µM	64 µM	64 µM	64 µM	64 µM	64 µM	–
O=C(c1cc(C(F)(F)F)n[nH]1)N1CCCC(c2cc3ncccc3[nH]2)C1 (centres undefined)	64 µM	278 mL/min/kg	127 µL/min/mg	832 mL/min/kg	128 µL/min/mg	3.07	64 µM	0.881 ×10⁻⁶ cm/s	0.493	64 µM	64 µM	64 µM	64 µM	64 µM	64 µM	64 µM	64 µM	64 µM	64 µM	–
Cn1nccc1C(=O)N1CCCC(c2cc3ncccc3[nH]2)C1 (centres undefined)	64 µM	33.5 mL/min/kg	27.5 µL/min/mg	115 mL/min/kg	31.9 µL/min/mg	1.8	64 µM	1.03 to 1.37 ×10⁻⁶ cm/s	0.89	64 µM	64 µM	64 µM	64 µM	64 µM	64 µM	64 µM	64 µM	64 µM	64 µM	–
O=C(c1ccccc1)N1CCCC(c2cc3ncccn3n2)C1 (centres undefined)	64 µM	468 mL/min/kg	91.3 µL/min/mg	19200 mL/min/kg	1270 µL/min/mg	2.3	64 µM	16.5 ×10⁻⁶ cm/s	0.211	64 µM	64 µM	64 µM	64 µM	64 µM	64 µM	64 µM	64 µM	64 µM	64 µM	–
CC(C)(C)OC(=O)N1CCCC(c2cn3cccnc3n2)C1 (centres undefined)	64 µM	49 mL/min/kg	38 µL/min/mg	3290 mL/min/kg	861 µL/min/mg	2.58	64 µM	7.69 ×10⁻⁶ cm/s	0.836	64 µM	64 µM	64 µM	64 µM	64 µM	64 µM	64 µM	64 µM	64 µM	64 µM	–

Second part, led by results:

IC90 at 72 h (in vitro [1])	CLint scaled at 0.5 h, 0.5 µM (in vitro [2])	microsomal CLint at 0.5 h, 0.5 µM (in vitro [2])	CLint scaled at 0.5 h, 0.5 µM (in vitro [3])	microsomal CLint at 0.5 h, 0.5 µM (in vitro [3])	logD (physchem)	IC90 at 72 h (in vitro [4])	Papp (in vitro [5])	fraction unbound at 0.5 h, 0.5 µM (in vitro [6])	IC50 (Trypanosoma brucei)	IC90 (Trypanosoma brucei)	IC50 [7]	IC90 [7]	IC50 (Leishmania infantum)	IC90 (Leishmania infantum)	Compound	IC50 (cells)	IC50 (Macrophage)	IC50 (Trypanosoma cruzi)	IC90 (Trypanosoma cruzi)	selectivity ratio (in vitro [8])
64 µM	< 35 mL/min/kg	< 23 µL/min/mg	281 mL/min/kg	62.1 µL/min/mg	1.85	64 µM	3.98 ×10⁻⁶ cm/s	0.705	64 µM	64 µM	64 µM	64 µM	64 µM	64 µM	O=C(CCc1nc2cccnc2n1CCO)Nc1ccccc1	64 µM	64 µM	64 µM	64 µM	–
64 µM	< 31.2 mL/min/kg	< 23 µL/min/mg	314 mL/min/kg	78.8 µL/min/mg	2.15	64 µM	1.56 to 2.14 ×10⁻⁶ cm/s	0.801	64 µM	64 µM	64 µM	64 µM	64 µM	64 µM	Cc1nc(C)c(C(=O)N2CCCC(c3cc4ncccc4[nH]3)C2)o1 (centres undefined)	64 µM	64 µM	64 µM	64 µM	–
64 µM	< 36.7 mL/min/kg	< 23 µL/min/mg	< 108 mL/min/kg	< 23 µL/min/mg	1.09	64 µM	1.42 ×10⁻⁶ cm/s	0.684	64 µM	64 µM	64 µM	64 µM	64 µM	64 µM	Nc1cc(C2CCCN(C(=O)c3ccccc3)C2)[nH]n1 (centres undefined)	64 µM	64 µM	64 µM	64 µM	–
64 µM	< 43.3 mL/min/kg	< 23 µL/min/mg	140 mL/min/kg	25.1 µL/min/mg	2.03	64 µM	5.23 ×10⁻⁶ cm/s	0.571	64 µM	64 µM	64 µM	64 µM	64 µM	64 µM	CCN(CCC(=O)Nc1cccnc1)C(=O)c1ccc(F)cc1	64 µM	64 µM	64 µM	64 µM	–
64 µM	< 27.8 mL/min/kg	< 23 µL/min/mg	279 mL/min/kg	78.3 µL/min/mg	2.4	64 µM	3.18 ×10⁻⁶ cm/s	0.896	64 µM	64 µM	64 µM	64 µM	64 µM	64 µM	O=C(c1cc(C2CC2)no1)N1CCOC(c2cc3ncccc3[nH]2)C1 (centres undefined)	64 µM	64 µM	34.6 µM	63.5 µM	1.85
